According to patent US10407382B2, “EP4 agonists as therapeutic compounds” (ALLERGAN, INC., priority 2014, dated 2019):

Key:
EP2 [1] = target: T1, EP2 (Homo sapiens, UniProt P43116); test: cAMP assay, EP2; format: cell-based; design: expressed in transfected cells; host or cells: HEK-EBNA cells; conditions: HEK-EBNA cells expressing EP2
Method: (§1) A 384-well drug plate was prepared to contain 6 test compounds, PGE2 and cAMP in 16 serial dilutions in triplicate, using a Biomek station. HEK-EBNA cells expressing a target PG receptor subtype (EP2 or EP4) were suspended in a stimulation buffer (HBSS, 0.1% BSA, 0.5 mM IBMX and 5 mM HEPES, pH 7.4) in a density of 10^4 cells/5 μL. The reaction was initiated by mixing 5 μL drug dilutions with 5 μL of HEK-EBNA cells in a well, carried out for 30 min at room temperature, and followed by the addition of 5 μL anti-cAMP acceptor beads in the control buffer with Tween-20 (25 mM NaCl, 0.03% Tween-20, 5 mM HEPES, pH 7.4). After 30 min in the dark at room temperature, the mixtures were incubated with 15 μL biotinylated-cAMP/strepavidin donor beads in Lysis/Detection buffer (0.1% BSA, 0.3% Tween-20 and 5 mM HEPES, pH 7.4) for 45 min at the room temperature. Fluorescence changes were read using a Fusion-alpha HT microplate reader.

EP2 [2] = target: T1, EP2; test: Ki competition binding, EP2; design: expressed in transfected cells; conditions: [3H]PGE2 competition; NA = no activity
Method: (§2) Data from running binding and activity studies on the compounds of the invention were carried out as described in U.S. Pat. No. 7,427,685, the contents of which are incorporated herein by reference.
Competition binding experiments were performed in a medium containing Hank's balanced salt solution, Hepes 20 mM, pH 7.3, membranes (˜60 μg protein) or 2×10^5 cells from HEK 293 cells stably expressing human EP2 receptors, [^3H]PGE2 (10 nM) and various concentrations of test compounds in a total volume of 300 μl. Reaction mixtures were incubated at 23° C. for 60 min, and were filtered over Whatman GF IB filters under vacuum. Filters were washed three times with 5 ml ice-cold buffer containing 50 mM Tris/HCl (PH 7.3). Non-specific binding was estimated in the presence of excess unlabeled PGE2 (10 μM). Binding data fitted to the binding model for a single class of binding sites, using nonlinear regression analysis. IC50 values thus obtained were converted to Ki using the equation of Ki=(IC50/(1+[L]/KD) where [L] represents PGE2 concentration (10 nM) and KD the dissociation constant for [^3H]PGE2 at human EP2 receptors (40 nM).
(§3) Cells Stably Expressing EP1, EP2, EP4, and FP Receptors
(§4) HEK-293 cells stably expressing the human or feline FP receptor, or EP1, EP2, or EP4 receptors were washed with TME buffer, scraped from the bottom of the flasks, and homogenized for 30 sec using a Brinkman PT 10/35 polytron. TME buffer was added to achieve a final 40 ml volume in the centrifuge tubes (the composition of TME is 100 mM TRIS base, 20 mM MgCl2, […]; ION HCl is added to achieve a pH of 7.4).
(§5) The cell homogenate was centrifuged at 19000 rpm for 20 min at 4° C. using a Beckman Ti-60 rotor. The resultant pellet was resuspended in TME buffer to give a final 1 mg/ml protein concentration, as determined by Biorad assay. Radioligand binding competition assays vs. [^3H-]17-phenyl PGF2α (5 nM) were performed in a 100 μl volume for 60 min. Binding reactions were started by adding plasma membrane fraction. The reaction was terminated by the addition of 4 ml ice-cold TRIS-HCl buffer and rapid filtration through glass fiber GF/B filters using a Brandel cell harvester. The filters were washed 3 times with ice-cold buffer and oven dried for one hour.
(§6) [^3H-] PGE2 (specific activity 180 Ci mmol) was used as the radio ligand for EP receptors. [^3H] 17-phenyl PGF2α was employed for FP receptor binding studies. Binding studies employing EP1, EP2, EP4 and FP receptors were performed in duplicate in at least three separate experiments. A 200 μl assay volume was used. Incubations were for 60 min at 25° C. and were terminated by the addition of 4 ml of ice-cold 50 mM TRIS-HCl, followed by rapid filtration through Whatman GF/B filters and three additional 4 ml washes in a cell harvester (Brandel). Competition studies were performed using a final concentration of 5 nM [^3H]-PGE2, or 5 nM [^3H] 17-phenyl PGF2α and non-specific binding determined with 10^−5M of unlabeled PGE2, or 17-phenyl PGF2α, according to receptor subtype studied.

EP4 [3] = target: T2, EP4 (Homo sapiens, UniProt P35408); test: cAMP assay, EP4; format: cell-based; design: expressed in transfected cells; host or cells: HEK-EBNA cells; conditions: HEK-EBNA cells expressing EP4
Method: as §1

EP4 [4] = target: T2, EP4; test: Radioligand binding, EP4; design: expressed in transfected cells; membrane fraction; conditions: [3H]PGE2 competition
Method: as §2, §3, §4, §5, §6

hIP = target: T3, hIP (Homo sapiens, UniProt P43119); test: FLIPR calcium signal, hIP; format: cell-based; conditions: HEK-293(EBNA) cells; NA = no activity; read-out: Other Receptors EC50 hIP
T3 construct: expressed in transfected cells
Method: Methods for FLIPR™ Studies
HEK-293(EBNA) cells, stably expressing one type or subtype of recombinant human prostaglandin receptors (prostaglandin receptors expressed: hDP/Gqs5; hEP1; hEP2/Gqs5; hEP3A/Gqi5; hEP4/Gqs5; hFP; hIP; hTP), were cultured in 100 mm culture dishes in high-glucose DMEM medium containing 10% fetal bovine serum, 2 mM I-glutamine, 250 μg/ml geneticin (G418) and 200 μg/ml hygromycin B as selection markers, and 100 units/ml penicillin G, 100 μg/ml streptomycin and 0.25 μg/ml amphotericin B.
(b) Calcium Signal Studies on the FLIPR™
Cells were seeded at a density of 5×10^4 cells per well in Biocoat® Poly-D-lysine-coated black-wall, clear-bottom 96-well plates (Becton-Dickinson) and allowed to attach overnight in an incubator at 37° C. Cells were then washed two times with HBSS-HEPES buffer (Hanks Balanced Salt Solution without bicarbonate and phenol red, 20 mM HEPES, pH 7.4) using a Denley Cellwash plate washer (Labsystems). […]
Cells were excited with an Argon laser at 488 nm, and emission was measured through a 510-570 nm bandwidth emission filter (FLIPR™, Molecular Devices, Sunnyvale, Calif.). […] The peak increase in fluorescence intensity was recorded for each well. […] The peak fluorescence change in each drug-containing well was then expressed relative to the controls. […]

T2 sequence (P35408 whole entry): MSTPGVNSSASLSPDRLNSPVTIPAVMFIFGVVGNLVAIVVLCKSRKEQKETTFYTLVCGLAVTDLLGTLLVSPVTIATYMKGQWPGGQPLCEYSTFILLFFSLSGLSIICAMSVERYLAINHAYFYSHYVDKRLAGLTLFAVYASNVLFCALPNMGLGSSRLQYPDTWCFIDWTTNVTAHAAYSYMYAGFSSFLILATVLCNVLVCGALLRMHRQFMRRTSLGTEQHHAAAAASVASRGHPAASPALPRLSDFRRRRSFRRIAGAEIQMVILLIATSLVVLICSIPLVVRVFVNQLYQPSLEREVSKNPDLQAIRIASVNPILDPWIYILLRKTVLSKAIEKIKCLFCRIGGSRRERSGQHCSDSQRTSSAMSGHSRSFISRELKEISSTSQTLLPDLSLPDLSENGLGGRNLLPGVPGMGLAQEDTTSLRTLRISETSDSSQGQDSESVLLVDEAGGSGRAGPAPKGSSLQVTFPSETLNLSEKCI
T1 sequence (P43116 whole entry): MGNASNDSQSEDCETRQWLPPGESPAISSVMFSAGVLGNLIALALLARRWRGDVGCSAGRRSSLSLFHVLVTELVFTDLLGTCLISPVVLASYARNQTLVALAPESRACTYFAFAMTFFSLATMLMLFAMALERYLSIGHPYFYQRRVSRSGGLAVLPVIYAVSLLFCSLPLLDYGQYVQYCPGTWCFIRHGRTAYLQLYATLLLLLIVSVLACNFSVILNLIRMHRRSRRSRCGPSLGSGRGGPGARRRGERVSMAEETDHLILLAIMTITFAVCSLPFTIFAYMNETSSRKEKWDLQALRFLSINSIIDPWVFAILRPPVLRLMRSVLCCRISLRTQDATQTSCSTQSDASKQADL
T3 sequence (P43119 whole entry): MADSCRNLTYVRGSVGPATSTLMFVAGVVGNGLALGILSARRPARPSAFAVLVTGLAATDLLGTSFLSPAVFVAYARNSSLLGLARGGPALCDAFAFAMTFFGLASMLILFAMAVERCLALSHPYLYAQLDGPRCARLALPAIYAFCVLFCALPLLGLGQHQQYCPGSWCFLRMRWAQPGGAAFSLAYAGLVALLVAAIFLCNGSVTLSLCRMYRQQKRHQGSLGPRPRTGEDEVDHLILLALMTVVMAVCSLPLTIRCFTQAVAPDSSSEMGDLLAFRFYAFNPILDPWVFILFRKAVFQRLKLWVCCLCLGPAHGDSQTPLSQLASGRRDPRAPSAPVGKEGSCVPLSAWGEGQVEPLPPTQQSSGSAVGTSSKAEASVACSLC

SMILES: O=C(O)c1ccc(CNC(=O)C2CCCC2Cc2cccc(C(F)(F)F)c2)cc1 (single isomer, unassigned) [Example 5, 4-((2-(3-(Trifluoromethyl)benzyl)cyclopentanecarboxamido)methyl)benzoic Acid]
- EC50 (EP2 [1]): 13 nM
- Ki (EP2 [2]): 154 nM
- EC50 (EP4 [3]): > 10000 nM
- Ki (EP4 [4]): 8 nM

SMILES: COc1cc(CC2=C(C(=O)NCc3ccc(C(=O)O)cc3)CCC2)cc(OC)c1 [Example 3, 4-((2-(3,5-Dimethoxybenzyl)cyclopent-1-enecarboxamido)methyl)benzoic Acid]
- EC50 (EP2 [1]): 33 nM
- Ki (EP2 [2]): 1120 nM
- EC50 (EP4 [3]): 1 nM
- Ki (EP4 [4]): 5 nM

SMILES: COc1cc(CC2CCCCC2C(=O)NCc2ccc(C(=O)O)cc2)cc(OC)c1 (single isomer, unassigned) [Example 10, 4-((2-(3,5-Dimethoxybenzyl)cyclohexanecarboxamido)methyl)benzoic Acid]
- EC50 (EP2 [1]): 25 nM
- Ki (EP2 [2]): 908 nM
- EC50 (EP4 [3]): 0.2 nM
- Ki (EP4 [4]): 2 nM

SMILES: COc1cc(CC2=C(C(=O)NCc3ccc(C(=O)O)cc3)CCCCC2)cc(OC)c1 [Example 11, 4-((2-(3,5-Dimethoxybenzyl)cyclohept-1-enecarboxamido)methyl)benzoic Acid]
- EC50 (hIP): > 10000 nM
- EC50 (EP2 [1]): 48 nM
- Ki (EP2 [2]): 2780 nM
- EC50 (EP4 [3]): > 10000 nM
- Ki (EP4 [4]): 1 nM

SMILES: COc1cc(CC2CCCCCC2C(=O)NCc2ccc(C(=O)O)cc2)cc(OC)c1 (single isomer, unassigned) [Example 13, 4-((2-(3,5-Dimethoxybenzyl)cycloheptanecarboxamido)methyl)benzoic Acid]
- EC50 (EP2 [1]): 573 nM
- Ki (EP2 [2]): 6300 nM
- EC50 (EP4 [3]): 0.2 nM
- Ki (EP4 [4]): 2 nM

SMILES: O=C(O)c1ccc(CNC(=O)C2CCCC2Cc2cccc(C(F)(F)F)c2)cc1 (single isomer, unassigned) [Example 6, 4-((2-(3-(Trifluoromethyl)benzyl)cyclopentanecarboxamido)methyl)benzoic Acid]
- EC50 (hIP): > 10000 nM
- EC50 (EP2 [1]): 10 nM
- Ki (EP2 [2]): 733 nM
- EC50 (EP4 [3]): > 10000 nM
- Ki (EP4 [4]): 18 nM

SMILES: COc1cc(CC2CCCCC2C(=O)NCc2ccc(C(=O)O)cc2)cc(OC)c1 (single isomer, unassigned) [Example 9, 4-((2-(3,5-Dimethoxybenzyl)cyclohexanecarboxamido)methyl)benzoic Acid]
- EC50 (EP2 [1]): 389 nM
- Ki (EP2 [2]): 2150 nM
- EC50 (EP4 [3]): > 10000 nM
- Ki (EP4 [4]): 2 nM

SMILES: O=C(NCc1ccc(C(=O)O)cc1)C1=C(Cc2ccccc2Cl)CCCC1 [Example 24, 4-((2-(2-Chlorobenzyl)cyclohex-1-enecarboxamido)methyl)benzoic Acid]
- Ki (EP2 [2]): 83 nM
- EC50 (EP4 [3]): > 10000 nM
- Ki (EP4 [4]): 4 nM

SMILES: O=C(NCc1ccc(C(=O)O)cc1)C1=C(Cc2cccc(C(F)(F)F)c2)CCC1 [Example 4, 4-((2-(3-(Trifluoromethyl)benzyl)cyclopent-1-enecarboxamido)methyl)benzoic Acid]
- EC50 (EP2 [1]): 2 nM
- Ki (EP2 [2]): 109 nM
- EC50 (EP4 [3]): > 10000 nM
- Ki (EP4 [4]): 7 nM

SMILES: COc1ccccc1CC1CCCCC1C(=O)NCc1ccc(C(=O)O)cc1 (single isomer, unassigned) [Example 31, 4-((2-(2-Methoxybenzyl)cyclohexanecarboxamido)methyl)benzoic Acid]
- Ki (EP2 [2]): 994 nM
- EC50 (EP4 [3]): > 10000 nM
- Ki (EP4 [4]): 5 nM

SMILES: COc1ccc(OC)c(CC2CCCCC2C(=O)NCc2ccc(C(=O)O)cc2)c1 (single isomer, unassigned) [Example 18, 4-((2-(2,5-Dimethoxybenzyl)cyclohexanecarboxamido)methyl)benzoic Acid]
- Ki (EP2 [2]): 462 nM
- EC50 (EP4 [3]): > 10000 nM
- Ki (EP4 [4]): 16 nM

SMILES: COc1cc(CC2CCCCCC2C(=O)NCc2ccc(C(=O)O)cc2)cc(OC)c1 (single isomer, unassigned) [Example 12, 4-((2-(3,5-Dimethoxybenzyl)cycloheptanecarboxamido)methyl)benzoic Acid]
- EC50 (EP2 [1]): 1310 nM
- Ki (EP2 [2]): > 10000 nM
- EC50 (EP4 [3]): > 10000 nM
- Ki (EP4 [4]): 9 nM

SMILES: COc1cc(CC2=C(C(=O)NCc3ccc(C(=O)O)cc3)CCCC2)cc(OC)c1 [Example 8, 4-((2-(3,5-Dimethoxybenzyl)cyclohex-1-enecarboxamido)methyl)benzoic Acid]
- EC50 (EP2 [1]): 2 nM
- Ki (EP2 [2]): 177 nM
- EC50 (EP4 [3]): 0.2 nM
- Ki (EP4 [4]): 1 nM

SMILES: COc1cc(CC2CCCC2C(=O)NCc2ccc(C(=O)O)cc2)cc(OC)c1 (single isomer, unassigned) [Example 2, 4-((2-(3,5-Dimethoxybenzyl)cyclopentanecarboxamido)methyl)benzoic Acid]
- Ki (EP2 [2]): > 10000 nM
- EC50 (EP4 [3]): 9 nM
- Ki (EP4 [4]): 84 nM

SMILES: COc1cccc(CC2CCCCC2C(=O)NCc2ccc(C(=O)O)cc2)c1OC (single isomer, unassigned) [Example 16, 4-((2-(2,3-Dimethoxybenzyl)cyclohexanecarboxamido)methyl)benzoic Acid]
- Ki (EP2 [2]): 4120 nM
- EC50 (EP4 [3]): > 10000 nM
- Ki (EP4 [4]): 114 nM
